How the values were obtained:
PDE4Bcat = target: T1, PDE4Bcat (Homo sapiens, UniProt Q07343); assay: Phosphodiesterase-inhibitory activity, PDE4; type: biochemical; conditions: human-derived recombinant PDE protein, [3H]-cAMP, 30° C. for 20 minutes; read-out: IC50 (μmol/L) PDE4
T1 construct: made in house; host or cells: Sf9 insect cells (baculovirus, Bac-to-Bac / Gateway)

PDE3A catalytic zone = target: T2, PDE3A catalytic zone (Homo sapiens, UniProt Q14432); assay: Phosphodiesterase-inhibitory activity, PDE3; type: biochemical; conditions: human-derived recombinant PDE protein, [3H]-cAMP, 30° C. for 20 minutes; read-out: IC50 (μmol/L) PDE3
T2 construct: Regarding the cDNAs of the PDE3A catalytic zone; made in house; host or cells: Sf9 insect cells (baculovirus, Bac-to-Bac / Gateway)
T2 sequence (Q14432 674-1093 limits assumed): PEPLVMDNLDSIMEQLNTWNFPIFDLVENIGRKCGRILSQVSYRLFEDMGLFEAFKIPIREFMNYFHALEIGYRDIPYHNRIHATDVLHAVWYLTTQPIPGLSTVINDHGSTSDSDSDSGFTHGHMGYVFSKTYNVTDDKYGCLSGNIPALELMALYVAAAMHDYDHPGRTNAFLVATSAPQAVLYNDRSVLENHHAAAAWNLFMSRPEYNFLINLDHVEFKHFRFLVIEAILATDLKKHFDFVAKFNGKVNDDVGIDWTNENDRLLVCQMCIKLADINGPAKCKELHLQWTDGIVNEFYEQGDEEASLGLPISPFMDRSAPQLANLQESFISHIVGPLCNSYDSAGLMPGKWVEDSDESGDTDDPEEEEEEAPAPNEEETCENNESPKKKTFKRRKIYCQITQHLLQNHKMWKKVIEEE

T1 sequence (Q07343 330-659 limits assumed): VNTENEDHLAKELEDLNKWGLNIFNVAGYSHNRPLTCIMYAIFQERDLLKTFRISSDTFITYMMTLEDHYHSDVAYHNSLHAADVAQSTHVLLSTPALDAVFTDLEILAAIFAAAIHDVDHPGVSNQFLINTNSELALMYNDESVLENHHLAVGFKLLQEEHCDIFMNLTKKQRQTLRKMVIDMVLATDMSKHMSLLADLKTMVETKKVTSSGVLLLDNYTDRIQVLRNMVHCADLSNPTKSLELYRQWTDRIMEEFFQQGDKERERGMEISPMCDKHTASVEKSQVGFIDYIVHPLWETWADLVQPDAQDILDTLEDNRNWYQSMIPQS

IC50 (PDE4Bcat) | IC50 (PDE3A catalytic zone) | Compound
< 0.01 µmol/L | ≥ 100 µmol/L | COc1ccc(-c2ccc3cnccc3c2)c2cc(C(F)(F)F)nn12 [Example 47, 6-(7-Methoxy-2-trifluoromethylpyrazolo[1,5-a]pyridin-4-yl)isoquinoline]
< 0.01 µmol/L | 1 to 100 µmol/L | COc1ccc(-c2ccc3c[n+]([O-])ccc3c2)c2cc(C(F)(F)F)nn12 [Example 48, 6-(7-Methoxy-2-trifluoromethylpyrazolo[1,5-a]pyridin-4-yl)isoquinoline 2-oxide]
< 0.01 µmol/L | 1 to 100 µmol/L | COc1ccc(-c2ccc3cncc(Cl)c3c2)c2cc(C(F)(F)F)nn12 [Example 49, 4-Chloro-6-(7-methoxy-2-trifluoromethylpyrazolo[1,5-a]pyridin-4-yl)isoquinoline]
< 0.01 µmol/L | 1 to 100 µmol/L | COc1ccc(-c2ccc3cnccc3c2Cl)c2cc(C(F)(F)F)nn12 [Example 50, 5-Chloro-6-(7-methoxy-2-trifluoromethylpyrazolo[1,5-a]pyridin-4-yl)isoquinoline]
< 0.01 µmol/L | ≥ 100 µmol/L | COc1ccc(-c2ccc3cnccc3c2)c2c(Cl)c(C(F)(F)F)nn12 [Example 51, 6-(3-Chloro-7-methoxy-2-trifluoromethylpyrazolo[1,5-a]pyridin-4-yl)isoquinoline]
< 0.01 µmol/L | ≥ 100 µmol/L | COc1ccc(-c2ccc3cncc(Cl)c3c2)c2c(Cl)c(C(F)(F)F)nn12 [Example 52, 4-Chloro-6-(3-chloro-7-methoxy-2-trifluoromethylpyrazolo[1,5-a]pyridin-4-yl)isoquinoline]
< 0.01 µmol/L | 1 to 100 µmol/L | COc1ccc(-c2ccc3cnccc3c2)c2cc(C3CC3)nn12 [Example 53, 6-(2-Cyclopropyl-7-methoxypyrazolo[1,5-a]pyridin-4-yl)isoquinoline]
< 0.01 µmol/L | 1 to 100 µmol/L | CCc1cc2c(-c3ccc4cnccc4c3)ccc(OC)n2n1 [Example 54, 6-(2-Ethyl-7-methoxypyrazolo[1,5-a]pyridin-4-yl)isoquinoline]
< 0.01 µmol/L | ≥ 100 µmol/L | CNc1ccc(-c2ccc3cnccc3c2)c2cc(C(F)(F)F)nn12 [Example 55, 4-(Isoquinolin-6-yl)-N-methyl-2-trifluoromethylpyrazolo[1,5-a]pyridine-7-amine]
< 0.01 µmol/L | ≥ 100 µmol/L | CNc1ccc(-c2ccc3cnccc3c2)c2c(Cl)c(C(F)(F)F)nn12 [Example 56, 3-Chloro-4-(isoquinolin-6-yl)-N-methyl-2-trifluoromethylpyrazolo[1,5-a]pyridine-7-amine]
< 0.01 µmol/L | ≥ 100 µmol/L | COc1ccc(-c2ccc3cnccc3c2)n2c(Cl)c(C(F)(F)F)nc12 [Example 57, 6-(3-Chloro-8-methoxy-2-trifluoromethylimidazo[1,2-a]pyridin-5-yl)isoquinoline]
< 0.01 µmol/L | ≥ 100 µmol/L | CNc1ccc(-c2ccc3cnccc3c2)n2c(Cl)c(C(F)(F)F)nc12 [Example 58, 3-Chloro-5-(isoquinolin-6-yl)-N-methyl-2-trifluoromethylimidazo[1,2a]pyridine-8-amine]
< 0.01 µmol/L | 1 to 100 µmol/L | COc1ccc(-c2ccc3cnccc3c2)c2cccnc12 [Example 59, 5-(Isoquinolin-6-yl)-8-methoxyquinoline]

From US20110224250A1, “ISOQUINOLINE DERIVATIVE, AND PDE INHIBITOR COMPRISING SAME AS ACTIVE INGREDIENT” (priority 2008, published 2011)
